According to ChEMBL document CHEMBL1121775, “Synthesis and antimalarial effects of N2-aryl-N4-[(dialkylamino)alkyl]- and N4-aryl-N2-[(dialkylamino)alkyl]-2,4-quinazolinediamines” (J Med Chem, 1981):
Where “and” joins values, the source holds several entries; their conditions need not be identical. Equal values may be shown once.

Key:
Plasmodium berghei [1] = assay: (§1) Antimalarial effect against trophozoite-induced Plasmodium berghei in mice (Mus musculus) at 640 mg/kg subcutaneous dose; type: functional
Plasmodium berghei [2] = assay: Antimalarial effect against trophozoite-induced Plasmodium berghei in mice (Mus musculus) at 160 mg/kg subcutaneous dose; type: functional
Plasmodium berghei [3] = assay: Antimalarial effect against trophozoite-induced Plasmodium berghei in mice (Mus musculus) after 20 mg/kg subcutaneous dose; type: functional
Plasmodium berghei [4] = assay: Antimalarial effect against trophozoite-induced Plasmodium berghei in mice (Mus musculus) at 320 mg/kg subcutaneous dose; type: functional
Plasmodium berghei [5] = assay: Antimalarial effect against trophozoite-induced Plasmodium berghei in mice (Mus musculus) after 40 mg/kg subcutaneous dose; type: functional
Mus musculus [6] = assay: Number of mice cured at a subcutaneous dose of 640 mg/kg.; type: functional
Plasmodium berghei [7] = assay: Antimalarial activity against trophozoite-induced Plasmodium berghei in mice (Mus musculus); type: functional
[8] = The ratio of SD90 of the quinine hydrochloride, to the SD90 of the test substance for the Dose of 38 mg/kg; type: functional
Plasmodium berghei [9] = assay: Antimalarial effect against trophozoite-induced Plasmodium berghei in mice (Mus musculus) at 80 mg/kg subcutaneous dose; type: functional
Mus musculus [10] = assay: Antimalarial effect against trophozoite induced Plasmodium berghei in mice (Mus musculus) at dosage of 640 mg/kg after subcutaneous administration; No. of mice (Mus musculus) surviving after 60 days 2; type: functional
Mus musculus [11] = assay: Antimalarial effect against trophozoite induced Plasmodium berghei in mice (Mus musculus) at dosage of 160 mg/kg after subcutaneous administration.; type: functional
[12] = The ratio of SD90 of the quinine hydrochloride, to the SD90 of the test substance for the Dose of 68 mg/kg; type: functional
Plasmodium berghei [13] = assay: as §1; type: functional; details: 640 mg/kg
[14] = The ratio of SD90 of the quinine hydrochloride, to the SD90 of the test substance for the Dose of 37 mg/kg/day; type: functional
Mus musculus [15] = assay: Antimalarial effect against trophozoite-induced Plasmodium berghei in mice (Mus musculus) at dosage of 320 mg/kg after subcutaneous administration;; type: functional
Mus musculus [16] = assay: Number of toxic deaths at a dose of 320 mg/kg; type: toxicity, organism-based; design: dose 320 mg/kg; details: in vivo
[17] = The ratio of SD90 of the quinine hydrochloride, to the SD90 of the test substance for the Dose of 45 mg/kg; type: functional
Mus musculus [18] = assay: Number of toxic deaths at a dose of 160 mg/kg; type: toxicity, organism-based; design: dose 160 mg/kg; details: in vivo
Plasmodium berghei [19] = assay: Antimalarial activity against trophozoite-induced Plasmodium berghei in mice (Mus musculus) at 160 mg/kg subcutaneous dose; type: functional
Mus musculus [20] = assay: Number of toxic deaths at a dose of 640 mg/kg; type: toxicity, organism-based; design: dose 640 mg/kg; details: in vivo
Mus musculus [21] = assay: Number of mice cured at a dose of 640 mg/kg sc; type: functional; details: route subcutaneous
Mus musculus [22] = assay: Number of mice cured at a subcutaneous dose of 160 mg/kg.; type: functional
[23] = The ratio of SD90 of the quinine hydrochloride, to the SD90 of the test substance for the Dose of 20 mg/kg; type: functional
Mus musculus [24] = assay: Number of mice cured at a subcutaneous dose of 320 mg/kg.; type: functional
Mus musculus [25] = assay: Antimalarial effect against trophozoite induced Plasmodium berghei in mice (Mus musculus) at dosage of 320 mg/kg after subcutaneous administration; No. of mice (Mus musculus) surviving after 60 days 3; type: functional
[26] = The ratio of SD90 of the quinine hydrochloride, to the SD90 of the test substance for the Dose of 70 mg/kg; type: functional
[27] = The ratio of SD90 of the quinine hydrochloride, to the SD90 of the test substance for the Dose of >34 mg/kg; type: functional
Mus musculus [28] = assay: Number of mice cured at a dose of 320 mg/kg sc; type: functional; details: route subcutaneous
[29] = The ratio of SD90 of the quinine hydrochloride, to the SD90 of the test substance for the Dose of […] mg/kg; type: functional

SMILES	MST (Plasmodium berghei [2]; 160 mg/kg)	MST (Plasmodium berghei [3])	MST (Plasmodium berghei [4])	MST (Plasmodium berghei [5]; 40 mg/kg)	SD90 (Plasmodium berghei [7])	MST (Plasmodium berghei [9])	also measured
CCN1CCCC(Nc2nc(Nc3ccc(Cl)cc3)nc3ccccc23)C1 (stereo not drawn)	10.6 days and 11.4 days	0.2 days	20 days	0.4 days and 0.6 days	38 mg/kg/day	3 days	MST (Plasmodium berghei [1]; 640 mg/kg): 28.3 days and 28.8 days; No. of cured (Mus musculus [6]): 3; Ratio [8]: 2
Clc1ccc(Nc2nc(NCCN3CCCC3)c3ccccc3n2)cc1		0.1 days	18.2 days	0.7 days and 1.1 days	68 mg/kg/day	1.1 days	MST (Mus musculus [10]): 24.6 days; MST (Plasmodium berghei [1]): 25.4 days; MST (Plasmodium berghei [2]): 6.7 days; MST (Mus musculus [11]): 6.1 days; No. of cured (Mus musculus [6]; 640 mg/kg): 3 and 1; Ratio [12]: 1.1
FC(F)(F)c1ccc(Nc2nc(NCCN3CCCC3)c3ccccc3n2)cc1	4.8 days and 3.4 days	0.2 days	10.2 days	0.4 days and 0.8 days	37 mg/kg/day	2.4 days	MST (Plasmodium berghei [13]): 16.2 days and 13.2 days; Ratio [14]: 2
CCOc1ccc(Nc2nc(NCCN(CC)CC)c3cc(Cl)ccc3n2)cc1CN(CC)CC		0.2 days			45 mg/kg/day	3.2 days	MST (Mus musculus [15]): 5.8 days; No. of toxic deaths (Mus musculus [16]): 4; Ratio [17]: 1.6; MST (Plasmodium berghei [5]): 0.8 days; No. of toxic deaths (Mus musculus [18]): 1; MST (Plasmodium berghei [19]): 4.3 days; No. of toxic deaths (Mus musculus [20]): 5
CN1CCCC1CCNc1nc(Nc2cc(Cl)cc(Cl)c2)nc2ccc(Cl)cc12 (stereo not drawn)		0.6 days	21.1 days	3.6 days and 4 days	20 mg/kg/day	5 days	No. of survivals (Mus musculus [21]): 5; No. of survivals (Mus musculus [22]): 1; Ratio [23]: 3.8; MST (Plasmodium berghei [19]; 160 mg/kg): 11.1 days and 10.3 days; No. of survivals (Mus musculus [24]): 1
CCN1CCC(CNc2nc(Nc3ccc(C(F)(F)F)cc3)c3ccccc3n2)CC1		0.3 days	8.9 days				No. of survivals (Mus musculus [21]): 4; MST (Plasmodium berghei [1]): 21.9 days; MST (Plasmodium berghei [2]): 7.3 days; MST (Mus musculus [25]): 9.4 days; No. of survivals (Mus musculus [22]): 1; MST (Plasmodium berghei [5]): 0.5 days; MST (Plasmodium berghei [9]; 80 mg/kg): 0.5 days and 0.7 days; MST (Plasmodium berghei [19]): 3.9 days; No. of survivals (Mus musculus [24]): 3
Clc1ccc(Nc2nc(NCCN3CCCC3)c3ccccc3n2)cc1Cl	6.5 days and 7.1 days	0.3 days	9.3 days	2.1 days and 2.3 days	70 mg/kg/day	3.1 days	Ratio [26]: 1.1; MST (Plasmodium berghei [13]): 15.9 days and 13.7 days
CCOc1ccc(Nc2nc(NCCN(CC)CC)c3ccc(Cl)cc3n2)cc1CN1CCCC1					>34 mg/kg/day		Ratio [27]: <2.2
CCN(CC)C1CCC(Nc2nc(Nc3cc(Br)cc(Br)c3)nc3ccccc23)CC1 (stereo not drawn)	8.7 days and 9.1 days	0.3 days	26.2 days	1.1 days and 0.7 days	3.3 mg/kg/day	4.3 days	No. of cured (Mus musculus [28]): 2; No. of cured (Mus musculus [6]): 5; Ratio [29]: 2.3
